Assay results from the NIST ThermoML archive (doi:10.1021/acs.jced.8b00554).

Test: xn = mol fraction of the nth substance listed
Details: Liquid, Vibrating tube method

CCCCCCCCC [nonane] + CCCO
Details	mass density [kg/m3]
323.15 K, 12010 kPa, x2 = 0.8941	768.14
323.15 K, 12020 kPa, x2 = 0.1231	706.6
323.15 K, 12020 kPa, x2 = 0.2315	710.98
323.15 K, 12020 kPa, x2 = 0.4272	720.79
323.15 K, 13000 kPa, x2 = 0.1231	707.48
323.15 K, 13000 kPa, x2 = 0.4272	721.68
323.15 K, 13000 kPa, x2 = 0.7021	743.81
323.15 K, 13010 kPa, x2 = 0.2315	711.85
323.15 K, 13010 kPa, x2 = 0.8941	768.99
323.15 K, 13020 kPa, x2 = 0.3229	715.95
323.15 K, 14000 kPa, x2 = 0.1231	708.35
323.15 K, 14000 kPa, x2 = 0.2315	712.73
323.15 K, 14000 kPa, x2 = 0.8941	769.85
323.15 K, 14010 kPa, x2 = 0.4272	722.55
323.15 K, 14020 kPa, x2 = 0.3229	716.82
323.15 K, 14020 kPa, x2 = 0.7021	744.68
323.15 K, 15000 kPa, x2 = 0.1231	709.2
323.15 K, 15000 kPa, x2 = 0.3229	717.67
323.15 K, 15010 kPa, x2 = 0.7021	745.54
323.15 K, 15010 kPa, x2 = 0.8941	770.68
323.15 K, 15020 kPa, x2 = 0.2315	713.58
323.15 K, 15020 kPa, x2 = 0.4272	723.42
323.15 K, 16010 kPa, x2 = 0.1231	710.02
323.15 K, 16010 kPa, x2 = 0.8941	771.51
323.15 K, 16020 kPa, x2 = 0.2315	714.42
323.15 K, 16020 kPa, x2 = 0.3229	718.52
323.15 K, 16020 kPa, x2 = 0.4272	724.26
323.15 K, 16020 kPa, x2 = 0.7021	746.38
323.15 K, 17000 kPa, x2 = 0.2315	715.27
323.15 K, 17000 kPa, x2 = 0.3229	719.35
323.15 K, 17000 kPa, x2 = 0.8941	772.34
323.15 K, 17010 kPa, x2 = 0.4272	725.1
323.15 K, 17020 kPa, x2 = 0.1231	710.86
323.15 K, 17020 kPa, x2 = 0.7021	747.22
323.15 K, 18000 kPa, x2 = 0.1231	711.67
323.15 K, 18010 kPa, x2 = 0.2315	716.08
323.15 K, 18010 kPa, x2 = 0.3229	720.19
323.15 K, 18010 kPa, x2 = 0.4272	725.91
323.15 K, 18010 kPa, x2 = 0.7021	748.04
323.15 K, 18010 kPa, x2 = 0.8941	773.16
323.15 K, 19010 kPa, x2 = 0.1231	712.48
323.15 K, 19010 kPa, x2 = 0.2315	716.87
323.15 K, 19010 kPa, x2 = 0.3229	720.99
323.15 K, 19010 kPa, x2 = 0.4272	726.74
323.15 K, 19020 kPa, x2 = 0.7021	748.85
323.15 K, 19020 kPa, x2 = 0.8941	773.95
323.15 K, 20000 kPa, x2 = 0.4272	727.54
323.15 K, 20010 kPa, x2 = 0.2315	717.66
323.15 K, 20010 kPa, x2 = 0.8941	774.74
323.15 K, 20020 kPa, x2 = 0.1231	713.24
323.15 K, 20020 kPa, x2 = 0.3229	721.77
323.15 K, 20020 kPa, x2 = 0.7021	749.67
333.15 K, 100 kPa, x2 = 0.1231	686.98
333.15 K, 100 kPa, x2 = 0.2315	690.52
333.15 K, 100 kPa, x2 = 0.3229	694.34
333.15 K, 100 kPa, x2 = 0.4272	699.84
333.15 K, 100 kPa, x2 = 0.7021	721.88
333.15 K, 100 kPa, x2 = 0.8941	747.76
333.15 K, 1000 kPa, x2 = 0.8941	748.19
333.15 K, 1010 kPa, x2 = 0.2315	691.2
333.15 K, 1010 kPa, x2 = 0.3229	694.86
333.15 K, 1010 kPa, x2 = 0.4272	700.34
333.15 K, 1010 kPa, x2 = 0.7021	722.39
333.15 K, 1020 kPa, x2 = 0.1231	687.08
333.15 K, 2000 kPa, x2 = 0.3229	695.92
333.15 K, 2000 kPa, x2 = 0.4272	701.38
333.15 K, 2010 kPa, x2 = 0.1231	688.14
333.15 K, 2010 kPa, x2 = 0.2315	692.25
333.15 K, 2010 kPa, x2 = 0.8941	749.18
333.15 K, 2020 kPa, x2 = 0.7021	723.42
333.15 K, 3000 kPa, x2 = 0.1231	689.17
333.15 K, 3000 kPa, x2 = 0.2315	693.28
333.15 K, 3010 kPa, x2 = 0.4272	702.44
333.15 K, 3010 kPa, x2 = 0.8941	750.17
333.15 K, 3020 kPa, x2 = 0.3229	696.96
333.15 K, 3020 kPa, x2 = 0.7021	724.44
333.15 K, 4000 kPa, x2 = 0.7021	725.48
333.15 K, 4010 kPa, x2 = 0.1231	690.19
333.15 K, 4010 kPa, x2 = 0.2315	694.31
333.15 K, 4010 kPa, x2 = 0.4272	703.48
333.15 K, 4020 kPa, x2 = 0.3229	697.98
333.15 K, 4020 kPa, x2 = 0.8941	751.17
333.15 K, 5010 kPa, x2 = 0.2315	695.33
333.15 K, 5010 kPa, x2 = 0.3229	699.01
333.15 K, 5010 kPa, x2 = 0.4272	704.5
333.15 K, 5010 kPa, x2 = 0.8941	752.16
333.15 K, 5020 kPa, x2 = 0.1231	691.22
333.15 K, 5020 kPa, x2 = 0.7021	726.49
333.15 K, 6000 kPa, x2 = 0.7021	727.51
333.15 K, 6000 kPa, x2 = 0.8941	753.15
333.15 K, 6010 kPa, x2 = 0.2315	696.33
333.15 K, 6010 kPa, x2 = 0.4272	705.51
